According to PubChem BioAssay (NCI):
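GI50 marks 50% less growth. TGI: concentration producing complete growth inhibition.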

Key:
Assay in all cases: inhibition of tumour cell growth, NCI panel, 384-well format
BT-549 breast = system: BT-549 breast
MDA-MB-231 breast = system: MDA-MB-231 breast
SF-539 CNS = system: SF-539 CNS
SW-620 colon = system: SW-620 colon
NCI-H522 lung = system: NCI-H522 lung
HOP-92 NSCLC = system: HOP-92 NSCLC
M14 melanoma = system: M14 melanoma
NCI-H460 NSCLC = system: NCI-H460 NSCLC
SK-MEL-5 melanoma = system: SK-MEL-5 melanoma
MDA-MB-435 melanoma = system: MDA-MB-435 melanoma
MALME-3M melanoma = system: MALME-3M melanoma
SF-295 CNS = system: SF-295 CNS
OVCAR-8 ovarian = system: OVCAR-8 ovarian
DU-145 prostate = system: DU-145 prostate
MOLT-4 leukemia = system: MOLT-4 leukemia
HOP-62 NSCLC = system: HOP-62 NSCLC
HCC-2998 colon = system: HCC-2998 colon
PC-3 prostate = system: PC-3 prostate
SK-MEL-2 melanoma = system: SK-MEL-2 melanoma
OVCAR-4 ovarian = system: OVCAR-4 ovarian
UO-31 renal = system: UO-31 renal
CCRF-CEM leukemia = system: CCRF-CEM leukemia
NCI/ADR-RES ovarian = system: NCI/ADR-RES ovarian
HT29 colon = system: HT29 colon
KM12 colon = system: KM12 colon
SF-268 CNS = system: SF-268 CNS
HCT-116 colon = system: HCT-116 colon
NCI-H23 lung = system: NCI-H23 lung
UACC-257 melanoma = system: UACC-257 melanoma
ACHN renal = system: ACHN renal
HCT-15 colon = system: HCT-15 colon
A549 NSCLC = system: A549 NSCLC
RXF 393 renal = system: RXF 393 renal
SK-OV-3 ovarian = system: SK-OV-3 ovarian
RPMI-8226 leukemia = system: RPMI-8226 leukemia
786-0 renal = system: 786-0 renal
K-562 leukemia = system: K-562 leukemia
COLO 205 colon = system: COLO 205 colon
MDA-MB-468 breast = system: MDA-MB-468 breast
MCF7 breast = system: MCF7 breast
A498 renal = system: A498 renal
OVCAR-3 ovarian = system: OVCAR-3 ovarian
SR leukemia = system: SR leukemia
OVCAR-5 ovarian = system: OVCAR-5 ovarian
TK-10 renal = system: TK-10 renal
SN12C renal = system: SN12C renal
U251 glioblastoma = system: U251 glioblastoma
T-47D breast = system: T-47D breast
SNB-19 CNS = system: SNB-19 CNS
IGROV1 ovarian = system: IGROV1 ovarian
CAKI-1 renal = system: CAKI-1 renal
SK-MEL-28 melanoma = system: SK-MEL-28 melanoma
NCI-H226 lung = system: NCI-H226 lung
LOX IMVI melanoma = system: LOX IMVI melanoma
NCI-H322M lung = system: NCI-H322M lung
HL-60(TB) leukemia = system: HL-60(TB) leukemia
UACC-62 melanoma = system: UACC-62 melanoma

Compound: Cn1cc(S(=O)(=O)N2CCC3=Cc4c(cnn4-c4ccc(F)cc4)C[C@]3(C(=O)c3cc(C(F)(F)F)ccn3)C2)cn1
- GI50 (BT-549 breast): 6.96 µM
- TGI (BT-549 breast): 55.7 µM
- GI50 (MDA-MB-231 breast): 53.3 µM
- TGI (MDA-MB-231 breast): > 100 µM
- GI50 (SF-539 CNS): 54.3 µM
- TGI (SF-539 CNS): > 100 µM
- GI50 (SW-620 colon): > 100 µM
- TGI (SW-620 colon): > 100 µM
- GI50 (NCI-H522 lung): 3.19 µM
- TGI (NCI-H522 lung): 81.2 µM
- GI50 (HOP-92 NSCLC): 11.8 µM
- TGI (HOP-92 NSCLC): > 100 µM
- GI50 (M14 melanoma): > 100 µM
- TGI (M14 melanoma): > 100 µM
- GI50 (NCI-H460 NSCLC): 3.12 µM
- TGI (NCI-H460 NSCLC): > 100 µM
- GI50 (SK-MEL-5 melanoma): 7.3 µM
- TGI (SK-MEL-5 melanoma): > 100 µM
- GI50 (MDA-MB-435 melanoma): > 100 µM
- TGI (MDA-MB-435 melanoma): > 100 µM
- GI50 (MALME-3M melanoma): 19.2 µM
- TGI (MALME-3M melanoma): 71.1 µM
- GI50 (SF-295 CNS): 11.5 µM
- TGI (SF-295 CNS): > 100 µM
- GI50 (OVCAR-8 ovarian): 46.8 µM
- TGI (OVCAR-8 ovarian): > 100 µM
- GI50 (DU-145 prostate): > 100 µM
- TGI (DU-145 prostate): > 100 µM
- GI50 (MOLT-4 leukemia): 3.09 µM
- TGI (MOLT-4 leukemia): 9.44 µM
- GI50 (HOP-62 NSCLC): 5.17 µM
- TGI (HOP-62 NSCLC): > 100 µM
- GI50 (HCC-2998 colon): > 100 µM
- TGI (HCC-2998 colon): > 100 µM
- GI50 (PC-3 prostate): 9.49 µM
- TGI (PC-3 prostate): > 100 µM
- GI50 (SK-MEL-2 melanoma): 42.8 µM
- TGI (SK-MEL-2 melanoma): > 100 µM
- GI50 (OVCAR-4 ovarian): 3.97 µM
- TGI (OVCAR-4 ovarian): > 100 µM
- GI50 (UO-31 renal): 11.8 µM
- TGI (UO-31 renal): > 100 µM
- GI50 (CCRF-CEM leukemia): 4.73 µM
- TGI (CCRF-CEM leukemia): > 100 µM
- GI50 (NCI/ADR-RES ovarian): 7.38 µM
- TGI (NCI/ADR-RES ovarian): > 100 µM
- GI50 (HT29 colon): > 100 µM
- TGI (HT29 colon): > 100 µM
- GI50 (KM12 colon): 46.6 µM
- TGI (KM12 colon): > 100 µM
- GI50 (SF-268 CNS): > 100 µM
- TGI (SF-268 CNS): > 100 µM
- GI50 (HCT-116 colon): 3.29 µM
- TGI (HCT-116 colon): > 100 µM
- GI50 (NCI-H23 lung): 1.34 µM
- TGI (NCI-H23 lung): 4.6 µM
- GI50 (UACC-257 melanoma): 7.32 µM
- TGI (UACC-257 melanoma): > 100 µM
- GI50 (ACHN renal): 31.6 µM
- TGI (ACHN renal): > 100 µM
- GI50 (HCT-15 colon): > 100 µM
- TGI (HCT-15 colon): > 100 µM
- GI50 (A549 NSCLC): 8.76 µM
- TGI (A549 NSCLC): > 100 µM
- GI50 (RXF 393 renal): 1.98 µM
- TGI (RXF 393 renal): 8.01 µM
- GI50 (SK-OV-3 ovarian): 5.8 µM
- TGI (SK-OV-3 ovarian): > 100 µM
- GI50 (RPMI-8226 leukemia): 0.831 µM
- TGI (RPMI-8226 leukemia): 3.1 µM
- GI50 ([…]-0 renal): 66 µM
- TGI (786-0 renal): > 100 µM
- GI50 (K-562 leukemia): 3.27 µM
- TGI (K-562 leukemia): > 100 µM
- GI50 (COLO 205 colon): > 100 µM
- TGI (COLO 205 colon): > 100 µM
- GI50 (MDA-MB-468 breast): 1.84 µM
- TGI (MDA-MB-468 breast): 6.55 µM
- GI50 (MCF7 breast): 8.88 µM
- TGI (MCF7 breast): > 100 µM
- GI50 (A498 renal): 12.5 µM
- TGI (A498 renal): > 100 µM
- GI50 (OVCAR-3 ovarian): 9.32 µM
- TGI (OVCAR-3 ovarian): > 100 µM
- GI50 (SR leukemia): 1.87 µM
- TGI (SR leukemia): 3.82 µM
- GI50 (OVCAR-5 ovarian): > 100 µM
- TGI (OVCAR-5 ovarian): > 100 µM
- GI50 (TK-10 renal): 78.8 µM
- TGI (TK-10 renal): > 100 µM
- GI50 (SN12C renal): > 100 µM
- TGI (SN12C renal): > 100 µM
- GI50 (U251 glioblastoma): 15.4 µM
- TGI (U251 glioblastoma): > 100 µM
- GI50 (T-47D breast): 3.09 µM
- TGI (T-47D breast): > 100 µM
- GI50 (SNB-19 CNS): > 100 µM
- TGI (SNB-19 CNS): > 100 µM
- GI50 (IGROV1 ovarian): 14.1 µM
- TGI (IGROV1 ovarian): > 100 µM
- GI50 (CAKI-1 renal): 25.6 µM
- TGI (CAKI-1 renal): > 100 µM
- GI50 (SK-MEL-28 melanoma): > 100 µM
- TGI (SK-MEL-28 melanoma): > 100 µM
- GI50 (NCI-H226 lung): 20.3 µM
- TGI (NCI-H226 lung): > 100 µM
- GI50 (LOX IMVI melanoma): 49 µM
- TGI (LOX IMVI melanoma): > 100 µM
- GI50 (NCI-H322M lung): > 100 µM
- TGI (NCI-H322M lung): > 100 µM
- GI50 (HL-60(TB) leukemia): 4.66 µM
- TGI (HL-60(TB) leukemia): 12.9 µM
- GI50 (UACC-62 melanoma): 38.6 µM
- TGI (UACC-62 melanoma): > 100 µM
